Results from US9181183B2, “Prostaglandin D synthase inhibitory piperidine compounds” (Taiho Pharmaceutical Co., Ltd., priority 2010, dated 2015).

The compounds below were run against human H-PGDS (Homo sapiens, UniProt O60760) (assay: Hematopoietic prostaglandin D synthase (H-PGDS) inhibiting action, [14C]PGH2 to PGD2 conversion, TLC radioassay). Conditions: compound 0.1 μM; inhibition rate relative to solvent control group; [14C] prostaglandin H2 10 μM, 25° C.
human H-PGDS, sequence (O60760 whole entry): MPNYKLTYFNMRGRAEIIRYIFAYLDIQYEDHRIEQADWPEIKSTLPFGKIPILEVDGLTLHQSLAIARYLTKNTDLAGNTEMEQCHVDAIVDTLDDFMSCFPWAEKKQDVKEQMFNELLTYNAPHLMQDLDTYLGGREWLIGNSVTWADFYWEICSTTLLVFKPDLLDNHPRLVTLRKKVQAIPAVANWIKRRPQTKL
Format: biochemical
Experimental: The test was carried out according to the method of Urade, Y. et al. (J. Biol. Chem., 262, 3820-3825, (1987)). More specifically, a reaction mixture (49 μL) containing 100 mM Tris-HCl (pH 8.0), 1 mM reduced form glutathione, 0.1 mg/mL γ-globulin, human H-PGDS (q.s.), and a compound (0.1 μM) was preincubated at 25° C. for 5 minutes. A DMSO solution (final concentration: 1%) was added to the solvent control group. Subsequently, 1 μL of [^14C] prostaglandin H2 (final concentration: 10 μM) was added to start the reaction. One minute after the start of the reaction, 250 μL of a reaction stopper solution (diethylether/methanol/1M citric acid (30/4/1)) cooled with ice was added to stop the reaction. After the reaction was stopped, 50 μL of the upper layer portion (organic solvent phase) was applied to a TLC plate and developed at −20° C. for 45 minutes (developing solvent: diethylether/methanol/acetic acid (90/2/1)). After the TLC plate was dried and exposed to an imaging plate for 1 to 24 hours, the radioactivity corresponding to prostaglandin D2 (PGD2) was analyzed using an image analyzer (produced by Fujifilm Corporation). The area (%) occupied by the PGD2 band per lane and the inhibition rate (%) of each Example compound at 0.1 μM relative to the control group in each experiment were calculated.
In the case of “N-(4-(4-(morpholin-1-yl-carbonyl)piperidin-1-yl)phenyl)-2-(4-(pyridin-2-ylmethylene)piperidine-1-carboxamido)thiazole-5-carboxamide [Example 15]”, the “H-PGDS inh. (% at 0.1 μM)” value is reported as 68.6%.
For “N-(6-(4-morpholin-1-yl-carbonylphenyl)-benzo[d]thiazol-2-yl)-4-(pyridin-2-ylmethylene)-piperidine-1-carboxamide [Example 2]”, the “H-PGDS inh. (% at 0.1 μM)” value was 64.4%.
In the case of “N-(4-(morpholin-1-yl-carbonyl)phenyl)-2-(4-(pyridin-2-ylmethylene)piperidine-1-carboxamido)thiazole-5-carboxamide [Example 19]”, the “H-PGDS inh. (% at 0.1 μM)” value is reported as 55.1%.

Same assay, conditions: compound 0.1 μM; inhibition rate relative to solvent control group; [14C] prostaglandin H2 10 μM, 25° C.; read-out: H-PGDS inh. (% at 0.1 μM)
`O=C(Nc1nc2ccc(Br)cc2s1)N1CCC(=Cc2ccccn2)CC1` [Example 1, N-(6-bromobenzo[d]thiazol-2-yl)-4-(pyridin-2-ylmethylene)-piperidine-1-carboxamide] gave an inhibition at 0.1 µM of 70.9%.
For `O=C(NC1CCN(C(=O)c2cccc(F)c2)CC1)N1CCC(=Cc2cc(F)ccc2F)CC1` [Example 61, 4-(2,5-difluorobenzylidene)-N-(1-(3-fluorobenzoyl)piperidin-4-yl)piperidine-1-carboxamide], the inhibition at 0.1 µM was 67.7%.
With `CC(C)C(=O)Nc1ccc(NC(=O)N2CCC(=Cc3cc(F)ccc3F)CC2)cc1` [Example 77, 4-(2,5-difluorobenzylidene)-N-(4-isobutyramidophenyl)piperidine-1-carboxamide] the inhibition at 0.1 µM was 68.1%.
Work on `Nc1ccc2nc(NC(=O)N3CCC(=Cc4ccccn4)CC3)sc2c1` [Example 10, N-(6-aminobenzo[d]thiazol-2-yl)-4-(pyridin-2-ylmethylene)-piperidine-1-carboxamide] yielded an inhibition at 0.1 µM of 61.9%.
Work on `Cc1ccnc(C(=O)N2CCC(NC(=O)N3CCC(=Cc4cc(F)ccc4F)CC3)CC2)c1` [Example 63, 4-(2,5-difluorobenzylidene)-N-(1-(4-methylpicolinoyl)piperidin-4-yl)piperidine-1-carboxamide] yielded an inhibition at 0.1 µM of 64.7%.
For `O=C(Nc1ccc(Oc2ncccn2)cc1)N1CCC(=Cc2cc(F)ccc2F)CC1` [Example 70, 4-(2,5-difluorobenzylidene)-N-(4-(pyrimidin-2-yloxy)phenyl)piperidine-1-carboxamide], the inhibition at 0.1 µM was 84.2%.
`O=C(NC1CCN(C(=O)c2ccccn2)CC1)N1CCC(=Cc2cc(F)ccc2F)CC1` [Example 51, 4-(2,5-difluorobenzylidene)-N-(1-picolinoylpiperidin-4-yl)piperidine-1-carboxamide] showed an inhibition at 0.1 µM of 50%.
Compound `O=C(Nc1ccc(NC(=O)N2CCC(=Cc3cc(F)ccc3F)CC2)cc1)c1cscn1` [Example 75, N-(4-(4-(2,5-difluorobenzylidene)piperidine-1-carboxamido)phenyl)thiazole-4-carboxamide] has an inhibition at 0.1 µM of 71.2%.
Work on `O=C(Nc1nc2ccc(-c3cncnc3)cc2s1)N1CCC(=Cc2ccccn2)CC1` [Example 6, N-(6-(pyrimidin-5-yl)-benzo[d]thiazol-2-yl)-4-(pyridin-2-ylmethylene)-piperidine-1-carboxamide] yielded an inhibition at 0.1 µM of 78.8%.
`O=C(NC1CCN(C(=O)N2CCCCC2)CC1)N1CCC(=Cc2cc(F)ccc2F)CC1` [Example 57, 4-(2,5-difluorobenzylidene)-N-(1-(piperidine-1-carbonyl)piperidin-4-yl)piperidine-1-carboxamide] gave an inhibition at 0.1 µM of 62.3%.
`O=C(Nc1ccc(CCn2ccnn2)cc1)c1cnc(NC(=O)N2CCC(=Cc3ccccn3)CC2)s1` [Example 14, N-(4-(2-(1H-1,2,3-triazol-1-yl)ethyl)phenyl)-2-(4-(pyridin-2-ylmethylene)piperidine-1-carboxamido)thiazole-5-carboxamide] showed an inhibition at 0.1 µM of 53.9%.
With `O=C(Nc1ncc(C(=O)N2CCCCC2)s1)N1CCC(=Cc2ccccn2)CC1` [Example 17, N-(5-(piperidin-1-yl-carbonyl)thiazol-2-yl)-4-(pyridin-2-ylmethylene)piperidine-1-carboxamide] the inhibition at 0.1 µM was 65%.
`O=C(Nc1nccs1)c1ccc(-c2ccc(NC(=O)N3CCC(=Cc4ccccn4)CC3)cn2)cc1` [Example 29, 4-(pyridin-2-ylmethylene)-N-(6-(4-(thiazol-2-ylcarbamoyl)phenyl)pyridin-3-yl)piperidine-1-carboxamide] showed an inhibition at 0.1 µM of 78.8%.
With `COc1ncccc1-c1ccc2nc(NC(=O)N3CCC(=Cc4ccccn4)CC3)sc2c1` [Example 9, N-(6-(2-methoxypyridin-3-yl)-benzo[d]thiazol-2-yl)-4-(pyridin-2-ylmethylene)-piperidine-1-carboxamide] the inhibition at 0.1 µM was 76.6%.
In the case of `O=C(NC1CCN(C(=O)C2CCCCC2)CC1)N1CCC(=Cc2cc(F)ccc2F)CC1` [Example 49, N-(1-(cyclohexanecarbonyl)piperidin-4-yl)-4-(2,5-difluorobenzylidene)piperidine-1-carboxamide], the inhibition at 0.1 µM is reported as 39.6%.
For `O=C(Nc1ccc(OCc2ccccc2)cc1)N1CCC(=Cc2ccccn2)CC1` [Example 68, N-(4-(benzyloxy)phenyl)-4-(pyridin-2-ylmethylene)piperidine-1-carboxamide], the inhibition at 0.1 µM was 59.8%.
Work on `O=C(O)c1ccc(NC(=O)c2cnc(NC(=O)N3CCC(=Cc4ccccn4)CC3)s2)cc1` [Example 18, 4-(2-(4-(pyridin-2-ylmethylene)piperidine-1-carboxamido)thiazole-5-carboxamido)benzoic acid] yielded an inhibition at 0.1 µM of 65.1%.
`CS(=O)(=O)NC(=O)c1ccc(-c2cnc(NC(=O)N3CCC(=Cc4ccccn4)CC3)s2)cc1` [Example 23, N-(5-(4-(methylsulfonylcarbamoyl)phenyl)thiazol-2-yl)-4-(pyridin-2-ylmethylene)piperidine-1-carboxamide] showed an inhibition at 0.1 µM of 65.9%.
`O=C(Nc1nc2ccc(-c3cccs3)cc2s1)N1CCC(=Cc2ccccn2)CC1` [Example 8, N-(6-(thiophen-2-yl)-benzo[d]thiazol-2-yl)-4-(pyridin-2-ylmethylene)-piperidine-1-carboxamide] was tested, and the inhibition at 0.1 µM was 80%.
`O=C(Nc1ccc(NC(=O)N2CCC(=Cc3cc(F)ccc3F)CC2)cc1)c1ccsc1` [Example 76, 4-(2,5-difluorobenzylidene)-N-(4-(thiophene-3-carboxamido)phenyl)piperidine-1-carboxamide] gave an inhibition at 0.1 µM of 79.4%.
Compound `O=C(NC1CCN(C(=O)c2ccccc2F)CC1)N1CCC(=Cc2cc(F)ccc2F)CC1` [Example 60, 4-(2,5-difluorobenzylidene)-N-(1-(2-fluorobenzoyl)piperidin-4-yl)piperidine-1-carboxamide] has an inhibition at 0.1 µM of 67.1%.
`O=C(Nc1ccc(N2CCCCC2)cc1)c1cnc(NC(=O)N2CCC(=Cc3ccccn3)CC2)s1` [Example 16, N-(4-(piperidin-1-yl)phenyl)-2-(4-(pyridin-2-ylmethylene)piperidine-1-carboxamido)thiazole-5-carboxamide] gave an inhibition at 0.1 µM of 52.7%.
`Cc1nccn1Cc1cnc(NC(=O)N2CCC(=Cc3ccccn3)CC2)s1` [Example 83, N-(5-((2-methyl-1H-imidazol-1-yl)methyl)thiazol-2-yl)-4-(pyridin-2-ylmethylene)piperidine-1-carboxamide] gave an inhibition at 0.1 µM of 41.6%.
`O=C(Nc1nccs1)c1ccc(-c2cnc(NC(=O)N3CCC(=Cc4ccccn4)CC3)s2)cc1` [Example 22, 4-(pyridin-2-ylmethylene)-N-(5-(4-(thiazol-2-ylcarbamoyl)phenyl)thiazol-2-yl)piperidine-1-carboxamide] gave an inhibition at 0.1 µM of 66.5%.
`CC(C)C(=O)N1CCC(NC(=O)N2CCC(=Cc3cc(F)ccc3F)CC2)CC1` [Example 48, 4-(2,5-difluorobenzylidene)-N-(1-isobutyrylpiperidin-4-yl)piperidine-1-carboxamide] showed an inhibition at 0.1 µM of 65.7%.
With `Cc1noc(C)c1-c1ccc2nc(NC(=O)N3CCC(=Cc4ccccn4)CC3)sc2c1` [Example 4, N-(6-(3,5-dimethylisoxazol-4-yl)-benzo[d]thiazol-2-yl)-4-(pyridin-2-ylmethylene)-piperidine-1-carboxamide] the inhibition at 0.1 µM was 62.9%.
Work on `O=C(Nc1ccc(NC(=O)N2CCC(=Cc3cc(F)ccc3F)CC2)cn1)c1ccccn1` [Example 79, N-(5-(4-(2,5-difluorobenzylidene)piperidine-1-carboxamido)pyridin-2-yl)picolinamide] yielded an inhibition at 0.1 µM of 56.8%.
With `O=C(O)c1ccc(-c2ncc(NC(=O)N3CCC(=Cc4ccccn4)CC3)cn2)cc1` [Example 33, 4-(5-(4-(pyridin-2-ylmethylene)piperidine-1-carboxamido)pyrimidin-2-yl)benzoic acid] the inhibition at 0.1 µM was 50%.
`O=C(Nc1ccc(Nc2ccccc2)cc1)N1CCC(=Cc2ccccn2)CC1` [Example 71, N-(4-(phenylamino)phenyl)-4-(pyridin-2-ylmethylene)piperidine-1-carboxamide] gave an inhibition at 0.1 µM of 62.9%.
With `O=C(Nc1ccon1)N1CCC(NC(=O)N2CCC(=Cc3cc(F)ccc3F)CC2)CC1` [Example 67, 4-(2,5-difluorobenzylidene)-N-(1-(isoxazol-3-ylcarbamoyl)piperidin-4-yl)piperidine-1-carboxamide] the inhibition at 0.1 µM was 51.7%.
Work on `O=C(Nc1ccc(NC(=O)N2CCC(=Cc3cc(F)ccc3F)CC2)cn1)c1cscn1` [Example 80, N-(5-(4-(2,5-difluorobenzylidene)piperidine-1-carboxamido)pyridin-2-yl)thiazole-4-carboxamide] yielded an inhibition at 0.1 µM of 66%.
